Data: patent publication US20230365542A1, “Selective Agonists of 5-HT2A Receptor and Methods of Use” (Yale University, priority 2020, published 2023)
“Also recorded” adds a separate entry of the source. Where two headings read alike, the source gives them in different places.

Assays:
5-HT2BR [1] = molecular target: T1, 5-HT2BR (Homo sapiens, UniProt P41595); experiment: Calcium flux assay (FLIPR, Fluo-4), 5-HT2BR stable cell line; format: cell-based; details: for 5-HT2BR Rmax ± S.E.M: value in parentheses
T1 construct: expressed in transfected cells; host or cells: Flp-In 293 T-Rex (tetracycline inducible)
Protocol: Stable cell lines for 5-HT2AR, 5-HT2BR and 5-HT2CR generated using the Flp-In 293 T-Rex Tetracycline inducible system (Invitrogen). Tetracycline-induced cells were seeded in 384-well poly-L-lysine plates at a density of 10,000 cells/well in DMEM containing 1% dialyzed FBS at least 16-24 hr before the calcium flux assay. On the day of the assay, the cells were incubated (20 ul/well) for 1 hr at 37° C. with Fluo-4 Direct dye (Invitrogen) reconstituted in FLIPR buffer (1×HBSS, 2.5 mM probenecid, and 20 mM HEPES, pH 7.4). After dye loading, cells were placed in a FLIPR^TETRA fluorescence imaging plate reader ([…]). Drug dilutions were prepared at 3× final concentration in drug buffer (1×HBSS, 20 mM HEPES, 0.1% BSA, 0.01% ascorbic acid, pH 7.4) and aliquoted into 384-well plates and placed in the FLIPR^TETRA for drug stimulation. The fluidics module and plate reader of the FLIPR^TETRA were programmed to read baseline fluorescence for 10s (1 read/s), then 10 ul of drug/well was added and read for 5 min (1 read/s). Fluorescence in each well was normalized to the average of the first 10 reads (i.e., baseline fluorescence). Then, the maximum-fold increase, which occurred within the first 60 s after drug addition, was determined and fold over baseline was plotted as a function of drug concentration. Data were normalized to % 5-HT stimulation and analyzed using “log(agonist) vs. response” in GraphPad Prism 9.0.

5-HT2BR [2] = molecular target: T1, 5-HT2BR; experiment: 5-HT2BR binding affinity (Ki), Table 8
[3] = tested on: wild-type (WT) and vesicular monoamine transporter 2 (VMAT2) heterozygous (HET) mice; experiment: Tail suspension test (immobility time) in wild-type and VMAT2 heterozygous mice; format: in vivo; details: 30 min after administration; for immobility time during the tail suspension test: compared to vehicle
Protocol: Tail suspension: This test was conducted as described in the literature (Acta Crystallographica Section D, 2010, 66:486-501). […] Immobility times were assessed over 6 min using MedAssociates software.

5-HT2CR [4] = molecular target: T2, 5-HT2CR (Homo sapiens, UniProt P28335); experiment: Calcium flux assay (FLIPR, Fluo-4), 5-HT2CR stable cell line; format: cell-based; details: for 5-HT2CR Rmax ± S.E.M: value in parentheses
T2 sequence (P28335 33-458): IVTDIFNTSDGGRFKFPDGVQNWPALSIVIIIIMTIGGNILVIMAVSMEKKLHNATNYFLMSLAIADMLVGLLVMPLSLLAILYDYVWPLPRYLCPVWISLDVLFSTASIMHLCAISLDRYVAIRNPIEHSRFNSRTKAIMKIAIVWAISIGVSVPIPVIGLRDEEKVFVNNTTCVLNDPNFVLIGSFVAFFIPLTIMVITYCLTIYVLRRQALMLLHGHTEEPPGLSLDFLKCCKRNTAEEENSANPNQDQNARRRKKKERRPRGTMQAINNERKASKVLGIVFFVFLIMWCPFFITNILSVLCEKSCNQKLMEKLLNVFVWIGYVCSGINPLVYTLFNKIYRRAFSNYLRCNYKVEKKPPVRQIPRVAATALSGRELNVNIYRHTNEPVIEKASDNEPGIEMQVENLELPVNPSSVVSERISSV
Protocol: (§3) Stable cell lines for 5-HT2AR, 5-HT2BR and 5-HT2CR generated using the Flp-In 293 T-Rex Tetracycline inducible system (Invitrogen). Tetracycline-induced cells were seeded in 384-well poly-L-lysine plates at a density of 10,000 cells/well in DMEM containing 1% dialyzed FBS at least 16-24 hr before the calcium flux assay. On the day of the assay, the cells were incubated (20 ul/well) for 1 hr at 37° C. with Fluo-4 Direct dye (Invitrogen) reconstituted in FLIPR buffer (1×HBSS, 2.5 mM probenecid, and 20 mM HEPES, pH 7.4). After dye loading, cells were placed in a FLIPR^TETRA fluorescence imaging plate reader (Molecular Dynamics). Drug dilutions were prepared at 3× final concentration in drug buffer (1×HBSS, 20 mM HEPES, 0.1% BSA, 0.01% ascorbic acid, pH 7.4) and aliquoted into 384-well plates and placed in the FLIPR^TETRA for drug stimulation. The fluidics module and plate reader of the FLIPR^TETRA were programmed to read baseline fluorescence for 10s (1 read/s), then 10 ul of drug/well was added and read for 5 min (1 read/s). Fluorescence in each well was normalized to the average of the first 10 reads (i.e., baseline fluorescence). Then, the maximum-fold increase, which occurred within the first 60 s after drug addition, was determined and fold over baseline was plotted as a function of drug concentration. Data were normalized to % 5-HT stimulation and analyzed using “log(agonist) vs. response” in GraphPad Prism 9.0.

C57BL/6J mice [5] = experiment: Head twitch response (HTR) in mice; format: in vivo; details: first 30 min after injection (i.p.)
Protocol: (§1) Open field: this apparatus has been described in the literature (Acta Crystallographica Section D, 2010, 66:486-501). Mice were placed into the open field for 30 min, injected with vehicle, (+)-LSD-(+)-tartrate (NIDA Drug Supply Program, Bethesda, MID), 38, or 33 (i.p.), and returned immediately to the open field for 30 min. Locomotion was monitored using Fusion Integra software (Omnitech, Columbus, OH).
Head twitch response: HTRs were filmed in the open field and were scored following drug administration for 30 min as described in the literature (Acta Crystallographica Section D, 2019, 75:861-877).
(§2) Statistics: Statistical analyses were performed with IBM SPSS Statistics 27 programs (IBM, Chicago, IL). The data are presented as means and standard errors of the mean. No sex effects were detected. One- or two-way ANOVA or repeated measures ANOVA (RMANOVA) were used, followed by Bonferroni corrected post-hoc analyses. A p<0.05 was considered significant. All behavioral results were plotted using GraphPad Prism.

5-HT2CR [6] = molecular target: T2, 5-HT2CR; experiment: 5-HT2CR binding affinity (Ki), Table 8
5-HT2AR [7] = molecular target: T3, 5-HT2AR (Homo sapiens, UniProt P28223); experiment: 5-HT2AR binding affinity (Ki), Table 8
T3 construct: expressed in transfected cells; host or cells: Flp-In 293 T-Rex (tetracycline inducible)

C57BL/6J mice [8] = experiment: Open field locomotion in mice; format: in vivo; details: i.p.
Protocol: as §1, §2

5-HT2AR [9] = molecular target: T3, 5-HT2AR; experiment: Calcium flux assay (FLIPR, Fluo-4), 5-HT2AR stable cell line; format: cell-based; details: for 5-HT2AR Rmax ± S.E.M: value in parentheses
Protocol: as §3

[10] = bracketed value below EC50, read-out: 5-HT2AR pEC50 ± S.E.M (converted)
[11] = bracketed value below Ki, read-out: 5-HT2BR pKi ± S.E.M (converted)
[12] = bracketed value below Ki, read-out: 5-HT2CR pKi ± S.E.M (converted)
[13] = bracketed value below Ki, read-out: 5-HT2AR pKi ± S.E.M (converted)

T3 sequence (P28223 whole entry): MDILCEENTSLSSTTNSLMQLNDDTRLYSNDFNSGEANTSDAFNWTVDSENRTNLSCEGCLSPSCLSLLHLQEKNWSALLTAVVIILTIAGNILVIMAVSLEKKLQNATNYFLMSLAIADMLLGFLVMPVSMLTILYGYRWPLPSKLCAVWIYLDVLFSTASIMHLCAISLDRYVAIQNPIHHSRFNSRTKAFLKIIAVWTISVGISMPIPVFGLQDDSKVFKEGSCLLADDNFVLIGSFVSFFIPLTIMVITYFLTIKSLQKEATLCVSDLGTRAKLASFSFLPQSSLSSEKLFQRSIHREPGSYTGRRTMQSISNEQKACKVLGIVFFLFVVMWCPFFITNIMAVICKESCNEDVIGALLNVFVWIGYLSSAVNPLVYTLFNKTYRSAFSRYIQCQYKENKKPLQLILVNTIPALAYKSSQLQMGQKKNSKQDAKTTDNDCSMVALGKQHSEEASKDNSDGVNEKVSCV
T1 sequence (P41595 whole entry): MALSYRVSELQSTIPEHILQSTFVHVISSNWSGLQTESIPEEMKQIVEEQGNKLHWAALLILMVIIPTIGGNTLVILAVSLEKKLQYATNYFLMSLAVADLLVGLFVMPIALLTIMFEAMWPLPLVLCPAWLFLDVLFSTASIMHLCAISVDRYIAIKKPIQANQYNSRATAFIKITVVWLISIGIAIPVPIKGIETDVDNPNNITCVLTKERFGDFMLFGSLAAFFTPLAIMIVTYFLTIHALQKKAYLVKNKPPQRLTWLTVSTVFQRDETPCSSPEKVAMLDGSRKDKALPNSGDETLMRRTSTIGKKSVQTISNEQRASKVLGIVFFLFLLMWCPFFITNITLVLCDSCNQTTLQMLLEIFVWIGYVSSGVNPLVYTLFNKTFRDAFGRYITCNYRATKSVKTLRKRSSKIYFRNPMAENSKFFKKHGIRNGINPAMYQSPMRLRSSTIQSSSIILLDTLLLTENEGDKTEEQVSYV

Structure (SMILES)	EC50 (5-HT2BR [1]; read-out: 5-HT2BR EC50) [nM]	5-HT2BR Rmax ± S.E.M (5-HT2BR [1])	Ki (5-HT2BR [2]; read-out: 5-HT2BR Ki) [nM]	EC50 (5-HT2CR [4]; read-out: 5-HT2CR EC50) [nM]	Ki (5-HT2CR [6]; read-out: 5-HT2CR Ki) [nM]	Ki (5-HT2AR [7]; read-out: 5-HT2AR Ki) [nM]	EC50 (5-HT2AR [9]; [10]) [nM]	5-HT2AR Rmax ± S.E.M (5-HT2AR [9])	EC50 (5-HT2AR [9]; read-out: 5-HT2AR EC50) [nM]	Ki (5-HT2BR [2]; [11]) [nM]	Ki (5-HT2CR [6]; [12]) [nM]	Ki (5-HT2AR [7]; [13]) [nM]	5-HT2BR EC50 (5-HT2BR [1])	5-HT2CR EC50 (5-HT2CR [4])	also measured
C[C@@H]1C=C(c2c[nH]c3ncccc23)CN(C)C1 [compound 33, (R)-3-(1,5-dimethyl-1,2,5,6-tetrahydropyridin-3-yl)-1H-pyrrolo[2,3-b]pyridine]	700	(50.5%	440	3250	480	880	110	(73.3%							immobility time during the tail suspension test, HET mice versus WTs given the same treatment ([3]; 1 mg/kg i.p., p=0.051): less time immobile; immobility time during the tail suspension test ([3]; VMAT2 HET mice, 0.5 mg/kg i.p.): reduced immobility time significantly; immobility time during the tail suspension test ([3]; VMAT2 HET mice, 1 mg/kg i.p., 1 mg/kg): restored wild-type levels of mobility; also recorded: reduced immobility time significantly; immobility time during the tail suspension test ([3]; WT mice, 0.5 mg/kg i.p.): no effects; immobility time during the tail suspension test ([3]; WT mice, 1 mg/kg i.p.): no effects; 5-HT2CR Rmax ± S.E.M (5-HT2CR [4]): (51.7%; head twitch responses (HTRs) (C57BL/6J mice [5]; 1 mg/kg): neither 38 nor 33 induced substantial HTRs; also recorded: not different from each other; distance travelled in the open field, locomotion post injection (31-60 min) (C57BL/6J mice [8]; 1 mg/kg): do not enhance locomotion; also recorded: not different from one another
C[C@@H]1C=C(c2c[nH]c3ncccc23)CN(Cc2cnco2)C1 [compound 47, (R)-5-((3-methyl-5-(1H-pyrrolo[2,3-b]pyridin-3-yl)-3,6-dihydropyridin-1(2H)-yl)methyl)oxazole]	940	(75.8%	> 10000	> 10000	> 10000	7190	977	(68.3%	990						
CCN(CC)C(=O)[C@@H]1C=C2c3cccc4[nH]cc(c34)C[C@H]2N(C)C1 [LSD, reference compound]															head twitch responses (HTRs) (C57BL/6J mice [5]; 0.3 mg/kg LSD): stimulated; distance travelled in the open field, locomotion post injection (31-60 min) (C57BL/6J mice [8]; 0.3 mg/kg LSD): significantly higher
C1=C(c2c[nH]c3ncccc23)CNCC1 [compound 49, 3-(1,2,5,6-tetrahydropyridin-3-yl)-1H-pyrrolo[2,3-b]pyridine]	630	(34.8%		820			151	(43.9%		257	288	398			EC50 (5-HT2CR [4]; bracketed value below EC50, read-out: 5-HT2CR pEC50 ± S.E.M (converted)): 832 nM; 5-HT2CR Rmax ± S.E.M (5-HT2CR [4]): (45.9%
c1cnc2[nH]cc(C3CCCNC3)c2c1 (single isomer, unassigned) [compound 51, 3-(piperidin-3-yl)-1H-pyrrolo[2,3-b]pyridine]			500		480	2730		(18.2%	4210				antagonist	antagonist	
Cc1ncc(CCN2CC(c3c[nH]c4ncccc34)=C[C@H](C)C2)cn1 [compound 41, (S)-3-(5-methyl-1-(2-(2-methylpyrimidin-5-yl)ethyl)-1,2,5,6-tetrahydropyridin-3-yl)-1H-pyrrolo[2,3-b]pyridine]			820		30	25					28.8	25.7	antagonist	antagonist	5-HT2AR EC50 (5-HT2AR [9]): antagonist
CCCCCN1CC(c2cncc(Cl)c2)=C[C@H](C)C1 [Compound 10, 5′-chloro-5-methyl-1-pentyl-1,2,5,6-tetrahydro-3,3′-bipyridine]		(88.9%		> 10000	1660	7010	331	(68.6%		5.01					EC50 (5-HT2BR [1]; bracketed value below EC50, read-out: 5-HT2BR pEC50 ± S.E.M (converted)): 24.5 nM
Cc1ncc(CCN2CC(c3c[nH]c4ncccc34)=C[C@@H](C)C2)cn1 [compound 40, (R)-3-(5-methyl-1-(2-(2-methylpyrimidin-5-yl)ethyl)-1,2,5,6-tetrahydropyridin-3-yl)-1H-pyrrolo[2,3-b]pyridine]	3820	(54.5%	4090		840					3980		398		antagonist	5-HT2AR EC50 (5-HT2AR [9]): antagonist
CCCCN1CC(c2c[nH]c3ncccc23)=C[C@H](C)C1 [Compound 22, 3-(1-butyl-5-methyl-1,2,5,6-tetrahydropyridin-3-yl)-1H-pyrrolo[2,3-b]pyridine]			1970		7030	5270		(23.8%	2260		7410		antagonist	antagonist	
